Tested on: RSV (Long)
Test: RSV cytopathic effect (CPE)-based viral replication assay
Assay type: cell-based, respiratory syncytial virus (RSV)
Settings: HEp-2 cells infected with RSV Long at MOI 0.015; 3 days at 37° C.; cell viability by CellTiter-Glo luminescence; read-out: EC50 (nm)
Description: Example A: RSV Cytopathic Effect
Compounds of the invention are initially tested in a cytopathic effect (CPE)-based viral replication assay using immortalized cells and a laboratory strain of RSV (Long). This assay evaluates the ability of a compound to inhibit viral replication.
Assay plates are prepared by seeding 2,500 HEp-2 cells (ATCC) per well of a 384-well black clear-bottom plate (Greiner Bio-One) in 20 μL of assay media (defined as DMEM supplemented with 2% heat-inactivated fetal bovine serum and 1% Penicillin/Streptomycin). Assay plates are incubated overnight at 37° C. in an incubator containing 5% CO2. The following day, a 10-point serial dilution of test compound is prepared in DMSO. Compounds are subsequently diluted with assay media and 20 μL of diluted compound (containing 1.5% DMSO) is transferred to an assay plate for evaluation of antiviral activity.
For the CPE assay, cells are infected at a Multiplicity of Infection (MOI) of 0.015 using 20 μL of RSV Long (ATCC) diluted in assay media. The DMSO concentration is constant throughout the assay plate, including the negative and positive controls. The assay plate is incubated for 3 days at 37° C. in an incubator containing 5% CO2. Cell viability is evaluated with the addition of 10 μL of CellTiter-Glo (ProMega). Luminescence is measured using an EnVision plate reader (Perkin Elmer). EC50 values are calculated using the raw data from the CPE assays.

| EC50 | Compound |
| --- | --- |
| 5.1 nM | CS(=O)(=O)Nc1ccc(-c2c(CN3C(=O)C4(CN(C(=O)C5(N)CC5)C4)c4ccccc43)ncc3ccccc23)cc1 [Example 132b, N-(4-(3-((1-(1-aminocyclopropanecarbonyl)-2′-oxospiro[azetidine-3,3′-indolin]-1′-yl)methyl)isoquinolin-4-yl)phenyl)methanesulfonamide] |
| 50 nM | CS(=O)(=O)N1CCC2(CC1)C(=O)N(Cc1ncc3ccccc3c1C1CNC(=O)C1)c1cnccc12 (centres unmarked) [Example 2018] |

Same assay, conditions: human respiratory syncytial virus, HEp-2, 72 h, HEp-2 cells infected with RSV Long at MOI 0.015; 3 days at 37° C.; cell viability by CellTiter-Glo luminescence; read-out: EC50 (nm)

| Compound | EC50 |
| --- | --- |
| CNC1(C(=O)N2CC3(C2)C(=O)N(Cc2ncc4ccccc4c2-c2ccc(C(N)=O)nc2)c2ccccc23)CC1 [Example 115c, 5-(3-((1-(1-(methylamino)cyclopropanecarbonyl)-2′-oxospiro[azetidine-3,3′-indolin]-1′-yl)methyl)isoquinolin-4-yl)picolinamide] | 15 nM |
| NC1(C(=O)N2CCC3(CC2)C(=O)N(Cc2ncc4ccccc4c2-c2ncco2)c2cnccc23)CC1 [Example 2021] | 690 nM |
| O=c1n(Cc2ncc3cc(F)ccc3c2CCCCO)c2cnccc2n1C1CC1 [Example 6g, 1-cyclopropyl-3-((7-fluoro-4-(4-hydroxybutyl)isoquinolin-3-yl)methyl)-1H-imidazo[4,5-c]pyridin-2(3H)-one] | 41 nM |
| NCC(=O)N1CC2(C1)C(=O)N(Cc1ncc3ccccc3c1-c1cccnc1)c1ccccc12 [Example 152, 1-(2-Aminoacetyl)-1′-((4-(pyridin-3-yl)isoquinolin-3-yl)methyl)spiro[azetidine-3,3′-indolin]-2′-one] | 12 nM |
| O=c1n(Cc2ncc3ccccc3c2CCCCO)c2ccccc2n1CC(F)(F)F [Example 5c, 1-((4-(4-hydroxybutyl)isoquinolin-3-yl)methyl)-3-(2,2,2-trifluoroethyl)-1H-benzo[d]imidazol-2(3H)-one] | 19 nM |
| NC1(C(=O)N2CCC3(CC2)C(=O)N(Cc2ncc4ccccc4c2-c2cnco2)c2cnccc23)CC1 [Example 2043] | 40 nM |
| CN(C)C1(C(=O)N2CC3(C2)C(=O)N(Cc2ncc4ccccc4c2-c2ccc(C(N)=O)nc2)c2ccccc23)CC1 [Example 113b, 5-(3-((1-(1-(Dimethylamino)cyclopropanecarbonyl)-2′-oxospiro[azetidine-3,3′-indolin]-1′-yl)methyl)isoquinolin-4-yl)picolinamide] | 17 nM |
| O=c1n(Cc2ncc3ccccc3c2CCCCO)c2cnccc2n1S(=O)(=O)C1CC1 [Example 22b, 1-(cyclopropylsulfonyl)-3-((4-(4-hydroxybutyl)isoquinolin-3-yl)methyl)-1H-imidazo[4,5-c]pyridin-2(3H)-one] | 15 nM |
| O=c1n(Cc2ncc3cc(Cl)ccc3c2CCCCO)c2cnccc2n1C1CC1 [Example 19b, 3-((7-chloro-4-(4-hydroxybutyl)isoquinolin-3-yl)methyl)-1-cyclopropyl-1H-imidazo[4,5-c]pyridin-2(3H)-one] | 110 nM |

Continued, values first:

| EC50 | Compound |
| --- | --- |
| 2.8 nM | CS(=O)(=O)N1CCC2(CC1)C(=O)N(Cc1ncc3cc(F)ccc3c1-c1ccncc1)c1cnccc12 [Example 2035] |
| 1.4 nM | CS(=O)(=O)N1CC2(C1)C(=O)N(Cc1ncc3ccccc3c1-c1cccnc1)c1ccccc12 [Example 154, 1-(Methylsulfonyl)-1′-((4-(pyridin-3-yl)isoquinolin-3-yl)methyl)spiro[azetidine-3,3′-indolin]-2′-one] |
| 1.2 nM | CNC1(C(=O)N2CCC3(CC2)C(=O)N(Cc2ncc4ccccc4c2-c2ccc(C(N)=O)nc2)c2cnccc23)CC1 [Example 108b, 5-(3-((1-(1-(Methylamino)cyclopropanecarbonyl)-2′-oxospiro[piperidine-4,3′-pyrrolo[2,3-c]pyridin]-1′(2′H)-yl)methyl)isoquinolin-4-yl)picolinamide] |
| 1.6 nM | COC(=O)N1CC2(C1)C(=O)N(Cc1ncc3ccccc3c1-c1ccc(F)nc1)c1ccccc12 [Example 73] |
| 7.2 nM | COC(=O)NC1CC2(C1)C(=O)N(Cc1ncc3ccccc3c1-c1ccc(C#N)nc1)c1ccccc12 (centres unmarked) [Example 84-1] |
| 1.5 nM | CNC1(C(=O)N2CC3(C2)C(=O)N(Cc2ncc4ccccc4c2-c2ccc(C#N)nc2)c2ccccc23)CC1 [Example 63, 5-(3-((1-(1-(Methylamino)cyclopropanecarbonyl)-2′-oxospiro[azetidine-3,3′-indolin]-1′-yl)methyl)isoquinolin-4-yl)picolinonitrile] |
| 0.45 nM | COC(=O)N1CC2(C1)C(=O)N(Cc1ncc3ccccc3c1-c1ccncc1)c1ccccc12 [Example 97, Methyl 2′-oxo-1′-((4-(pyridin-4-yl)isoquinolin-3-yl)methyl)spiro[azetidine-3,3′-indoline]-1-carboxylate] |
| 5.8 nM | CS(=O)(=O)c1ccc(-c2c(Cn3c(=O)n(C4CC4)c4ccncc43)ncc3ccccc23)cc1 [Example 69d, 1-cyclopropyl-3-((4-(4-(methylsulfonyl)phenyl)isoquinolin-3-yl)methyl)-1H-imidazo[4,5-c]pyridin-2(3H)-one] |
| 6.6 nM | NCCC(=O)N1CC2(C1)C(=O)N(Cc1ncc3ccccc3c1-c1cccnc1)c1ccccc12 [Example 150, 1-(3-Aminopropanoyl)-1′-((4-(pyridin-3-yl)isoquinolin-3-yl)methyl)spiro[azetidine-3,3′-indolin]-2′-one] |
| 2.5 nM | CS(=O)(=O)N(c1ccc(-c2c(CN3C(=O)C4(CCN(C(=O)C5(C(F)(F)F)CC5)CC4)c4ccncc43)ncc3ccccc23)cn1)S(C)(=O)=O [Example 166d, N-(methylsulfonyl)-N-(5-(3-((2′-oxo-1-(1-(trifluoromethyl)cyclopropanecarbonyl)spiro[piperidine-4,3′-pyrrolo[2,3-c]pyridin]-1′(2′H)-yl)methyl)isoquinolin-4-yl)pyridin-2-yl)methanesulfonamide] |
| 2.6 nM | CS(=O)(=O)N1CCC2(CC1)C(=O)N(Cc1ncc3ccccc3c1-c1ccc(C#N)nc1)c1cnccc12 [Example 66-1, 5-(3-((1-(Methylsulfonyl)-2′-oxospiro[piperidine-4,3′-pyrrolo[2,3-c]pyridin]-1′(2′H)-yl)methyl)isoquinolin-4-yl)picolinonitrile] |
| 2.2 nM | CC(C)(C)OC(=O)N1CC2(C1)C(=O)N(Cc1ncc3ccccc3c1CCCCO)c1ccccc12 [Example 36c, tert-butyl 1′-((4-(4-hydroxybutyl)isoquinolin-3-yl)methyl)-2′-oxospiro[azetidine-3,3′-indoline]-1-carboxylate] |
| 1.6 nM | NC(=O)N1CC2(C1)C(=O)N(Cc1ncc3ccccc3c1-c1cccnc1)c1ccccc12 [Example 131, 2′-Oxo-1′-((4-(pyridin-3-yl)isoquinolin-3-yl)methyl)spiro[azetidine-3,3′-indoline]-1-carboxamide] |
| 1.4 nM | CNC1(C(=O)N2CCC3(CC2)C(=O)N(Cc2ncc4ccccc4c2-c2ccc(F)nc2)c2cnccc23)CC1 [Example 111c, 1′-((4-(6-fluoropyridin-3-yl)isoquinolin-3-yl)methyl)-1-(1-(methylamino)cyclopropanecarbonyl)spiro[piperidine-4,3′-pyrrolo[2,3-c]pyridin-]2′(1′H)-one] |
| 9 nM | N#Cc1ccc(-c2c(CN3c4ccccc4[C@]4(C[C@@H](O)C4)C3=O)ncc3ccccc23)cn1 [Example 83] |

Source: patent publication US20190002436A1, “RESPIRATORY SYNCYTIAL VIRUS INHIBITORS” (MEDIVIR AB, priority 2015, published 2019)
